Measurements published in the supplement of paper PMC11061612.

How the values were obtained:
[1] = test system: 639-V (Bladder Carcinoma); assay: Bliss excess, mean over the matrix (fraction); higher = more synergy
Summary of the method: (§1)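 After 24 hours at 37°C and 5% CO2 in 1536-well plates, cells in DMEM/F12 or RPMI plus 10% FBS received two-drug dose matrices for 72 hours. Viability came from CellTiter-Glo 2.0 luminescence and was scaled as inhibition, anchored at 0 by vehicle wells and at 1 by blank wells. Combination Emax is taken as the second-highest inhibition in the matrix, and Bliss excess as the observed combination effect less EA + EB − EA·EB, with EA and EB the single-agent effects.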

[2] = test system: CAL-51 (Breast Carcinoma); assay: as above
Summary of the method: as §1

COLO-829 (Melanoma) [3] = assay: as above
Summary of the method: as §1

[4] = test system: HCC-15 (Squamous Cell Lung Carcinoma); assay: as above
Summary of the method: as §1

[5] = test system: KARPAS-231 (B-Cell Non-Hodgkin's Lymphoma); assay: as above
Summary of the method: as §1

[6] = test system: KYSE-410 (Esophageal Squamous Cell Carcinoma); assay: as above
Summary of the method: as §1

[7] = test system: LB771-HNC (Head and Neck Carcinoma); assay: as above
Summary of the method: as §1

[8] = test system: MHH-PREB-1 (B-Cell Non-Hodgkin's Lymphoma); assay: as above
Summary of the method: as §1

[9] = test system: NCI-H747 (Colorectal Carcinoma); assay: as above
Summary of the method: as §1

[10] = test system: OVCAR-8 (Ovarian Carcinoma); assay: as above
Summary of the method: as §1

[11] = test system: SW626 (Colorectal Carcinoma); assay: as above
Summary of the method: as §1

[12] = test system: TE-4 (Esophageal Squamous Cell Carcinoma); assay: as above
Summary of the method: as §1

[13] = test system: UMC-11 (Other Solid Carcinomas); assay: as above
Summary of the method: as §1

[14] = test system: 639-V (Bladder Carcinoma); assay: combination Emax (second highest fraction inhibited in the dose matrix, 72 h); higher = more inhibition; extreme values may be limits of the assay
Summary of the method: as §1

[15] = test system: CAL-51 (Breast Carcinoma); assay: as above
Summary of the method: as §1

COLO-829 (Melanoma) [16] = assay: as above
Summary of the method: as §1

[17] = test system: HCC-15 (Squamous Cell Lung Carcinoma); assay: as above
Summary of the method: as §1

[18] = test system: KARPAS-231 (B-Cell Non-Hodgkin's Lymphoma); assay: as above
Summary of the method: as §1

[19] = test system: KYSE-410 (Esophageal Squamous Cell Carcinoma); assay: as above
Summary of the method: as §1

[20] = test system: LB771-HNC (Head and Neck Carcinoma); assay: as above
Summary of the method: as §1

[21] = test system: MHH-PREB-1 (B-Cell Non-Hodgkin's Lymphoma); assay: as above
Summary of the method: as §1

[22] = test system: NCI-H747 (Colorectal Carcinoma); assay: as above
Summary of the method: as §1

[23] = test system: OVCAR-8 (Ovarian Carcinoma); assay: as above
Summary of the method: as §1

[24] = test system: SW626 (Colorectal Carcinoma); assay: as above
Summary of the method: as §1

[25] = test system: TE-4 (Esophageal Squamous Cell Carcinoma); assay: as above
Summary of the method: as §1

[26] = test system: UMC-11 (Other Solid Carcinomas); assay: as above
Summary of the method: as §1
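Wherever Bliss excess, mean over the matrix is given: after 72 h of two-drug dosing.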

`COc1nnc2ccc(N3CCC(c4ccc(OCCN5CCN(C)C(=O)[C@H]5C)cc4)CC3)nn12` [AZD5153] + CN(CC[C@H](CSC1=CC=CC=C1)NC2=C(C=C(C=C2)S(=O)(=O)NC(=O)C3=CC=C(C=C3)N4CCC(CC4)[C@H](C5=CC=CC=C5C6=CC=C(C=C6)Cl)O)S(=O)(=O)C(F)(F)F)CCO [AZD4320] (first compound max 1 µM, 7x7, partner max 1 µM) was tested, and the Bliss excess [1] was 0.034, the Bliss excess [2] was 0.0267 and the Bliss excess (COLO-829 (Melanoma) [3]) was -0.0466. The Bliss excess [4] was -0.0023, the Bliss excess [5] was -0.159 and the Bliss excess [6] was 0.0046. The Bliss excess [7] was 0.0273, the Bliss excess [8] was 0.0343 and the Bliss excess [9] was -0.0055. The Bliss excess [10] was 0.0081, the Bliss excess [11] was 0.0477 and the Bliss excess [12] was 0.0449. For the same molecule, the Bliss excess [13] was 0.0086, the “combination Emax” value [14] was 0.606 and the “combination Emax” value [15] was 0.843. The “combination Emax” value (COLO-829 (Melanoma) [16]) was 0.143, the “combination Emax” value [17] was 0.994 and the “combination Emax” value [18] was 1. For the same molecule, the “combination Emax” value [19] was 0.259, the “combination Emax” value [20] was 0.524 and the “combination Emax” value [21] was 0.47. The “combination Emax” value [22] was 0.728, the “combination Emax” value [23] was 0.733 and the “combination Emax” value [24] was 0.777. For the same molecule, the “combination Emax” value [25] was 0.336 and the “combination Emax” value [26] was 0.848.
`CC(=O)c1c(C)c2cnc(Nc3ccc(N4CCNCC4)cn3)nc2n(C2CCCC2)c1=O` [Palbociclib] + CN(CC[C@H](CSC1=CC=CC=C1)NC2=C(C=C(C=C2)S(=O)(=O)NC(=O)C3=CC=C(C=C3)N4CCC(CC4)[C@H](C5=CC=CC=C5C6=CC=C(C=C6)Cl)O)S(=O)(=O)C(F)(F)F)CCO [AZD4320] (first compound max 10 µM, 7x7, partner max 1 µM) gave a Bliss excess [1] of -0.124, a Bliss excess [2] of -0.123 and a Bliss excess (COLO-829 (Melanoma) [3]) of -0.117. The Bliss excess [4] was -0.0553, the Bliss excess [5] was -0.0645 and the Bliss excess [6] was -0.0667. The Bliss excess [7] was -0.0584, the Bliss excess [8] was -0.041 and the Bliss excess [9] was -0.0425. The Bliss excess [10] was -0.0261, the Bliss excess [11] was -0.0921 and the Bliss excess [12] was 0.001. The Bliss excess [13] was 0.0057, the “combination Emax” value [14] was 0.198 and the “combination Emax” value [15] was 0.479. The “combination Emax” value (COLO-829 (Melanoma) [16]) was 0.33, the “combination Emax” value [17] was 0.982 and the “combination Emax” value [18] was 0.98. The “combination Emax” value [19] was 0.41, the “combination Emax” value [20] was 0.206 and the “combination Emax” value [21] was 0.492. The “combination Emax” value [22] was 0.555, the “combination Emax” value [23] was 0.173 and the “combination Emax” value [24] was 0.662. For the same molecule, the “combination Emax” value [25] was 0.341 and the “combination Emax” value [26] was 0.631.
In the case of `C[C@@H](c1ccc2nccn2c1)n1nnc2ncc(-c3cnn(C)c3)nc21` [Savolitinib] + CN(CC[C@H](CSC1=CC=CC=C1)NC2=C(C=C(C=C2)S(=O)(=O)NC(=O)C3=CC=C(C=C3)N4CCC(CC4)[C@H](C5=CC=CC=C5C6=CC=C(C=C6)Cl)O)S(=O)(=O)C(F)(F)F)CCO [AZD4320] (first compound max 1 µM, 7x7, partner max 1 µM), the Bliss excess [1] is reported as -0.0957, the Bliss excess [2] is reported as -0.0375 and the Bliss excess (COLO-829 (Melanoma) [3]) is reported as -0.0397. The Bliss excess [4] was -0.0203, the Bliss excess [5] was -0.0299 and the Bliss excess [6] was -0.0588. For the same molecule, the Bliss excess [7] was -0.042, the Bliss excess [8] was -0.0481 and the Bliss excess [9] was -0.0808. For the same molecule, the Bliss excess [10] was -0.0373, the Bliss excess [11] was -0.108 and the Bliss excess [12] was -0.0244. The Bliss excess [13] was 0.0211, the “combination Emax” value [14] was 0.172 and the “combination Emax” value [15] was 0.207. The “combination Emax” value (COLO-829 (Melanoma) [16]) was 0.278, the “combination Emax” value [17] was 0.916 and the “combination Emax” value [18] was 0.907. The “combination Emax” value [19] was 0.174, the “combination Emax” value [20] was 0.154 and the “combination Emax” value [21] was 0.139. The “combination Emax” value [22] was 0.208, the “combination Emax” value [23] was 0.0738 and the “combination Emax” value [24] was 0.582. The “combination Emax” value [25] was 0.145 and the “combination Emax” value [26] was 0.401.
